Results taken from ChEMBL document CHEMBL1153662, “Synthesis and antiviral activity of alkylphosphonic acid derivatives of oxetanocin-A” (Bioorg Med Chem Lett, 1994).

Columns and labels:
Assay type in all cases: functional, cell-based
[1] = tested on: Vero; assay: In vitro antiviral activity against HSV-1 in vero cells by a plaque reduction assay at concentration up to 10 ug/mL; devoid of activity; conditions: Chlorocebus sabaeus
[2] = tested on: Vero; assay: In vitro antiviral activity against HSV-2 in vero cells by a plaque reduction assay at concentration up to 10 ug/mL; devoid of activity; conditions: Chlorocebus sabaeus
[3] = tested on: MT4; assay: In vitro […] against HIV-1 in MT-4 cells by indirect an immunofluorescence assay at concentration up to 100 ug/mL; devoid of activity; conditions: Homo sapiens

Measured: Activity

Nc1ncnc2c1ncn2C1OC(/C=C/P(=O)(O)O)C1CO (configuration not stated)
devoid of activity: all assays above

Nc1ncnc2c1ncn2C1OC(C(O)P(=O)(O)O)C1CO (configuration not stated)
devoid of activity: all assays above

Nc1ncnc2c1ncn2C1OC(CCP(=O)(O)O)C1CO (configuration not stated)
devoid of activity: all assays above

Nc1ncnc2c1ncn2C1OC(CCCP(=O)(O)O)C1CO (configuration not stated)
devoid of activity: all assays above
